Literature values, collected in US6241994A, “Solid TCMTB formulations” (Buckman Laboratories International, Inc., priority 1998, dated 2001).

What was measured:
[1] = unstable at temperatures greater than the value
[2] = for pH above which the substance decomposes: decomposition at a pH above the value

solubility in water (in water) | Compound | temperature above which considered unstable [1] | stability in acidic systems ([2]; acidic systems, ambient temperature) | pH above which the substance decomposes [2] | solubility in most of organic solvents (most of organic solvents)
 | N#CSCSC#N [MTC, methylene bisthiocyanate] | greater than 100 °C | stable | above 7.5 | soluble
about 0.033 g/l | N#CSCSc1nc2ccccc2s1 [TCMTB, 2-(thiocyanomethylthio)-benzothiazole] |  |  | above 8.0 | 
